The source of these data is ChEMBL document CHEMBL1144218, “Synthesis and biological activity of anticoccidial agents: 5,6-diarylimidazo[2,1-b][1,3]thiazoles” (Bioorg Med Chem Lett, 2008).

Usually pIC50 stands for the IC50 on a negative log10 scale, so that one unit is a factor of ten.

The subject of assay [1] is Eimeria tenella. Briefly: Anticoccidial activity against Eimeria tenella infected in poultry bird assessed as reduction of […] burden at 50 ppm, po after 7 days. It is filed as functional. The arrangement: scale not given: the % may be the effect or the level left.
Assay [2] in a line: Inhibition of Eimeria tenella PKG.
The subject of assay [3] is Eimeria acervulina. Briefly: Anticoccidial activity against Eimeria acervulina infected in poultry bird assessed as reduction of […] burden at 50 ppm, po after 7 days. It is filed as functional. The arrangement: scale not given: the % may be the effect or the level left.
The subject of assay [4] is Eimeria mitis. Briefly: Anticoccidial activity against Eimeria mitis infected in poultry bird assessed as reduction of […] burden at 50 ppm, po after 7 days. The format is functional. The arrangement: scale not given: the % may be the effect or the level left.
The subject of assay [5] is Eimeria maxima. The assay is described as follows: Anticoccidial activity against Eimeria maxima infected in poultry bird assessed as reduction of […] burden at 50 ppm, po after 7 days. The format is functional. Also noted: scale not given: the % may be the effect or the level left.
Assay [6] deals with Eimeria acervulina. Briefly: Anticoccidial activity against Eimeria acervulina infected in poultry bird assessed as reduction of […] burden at 25 ppm, po after 7 days. It is filed as functional. The arrangement: scale not given: the % may be the effect or the level left.
Assay [7] has as its system Eimeria tenella. Briefly: Anticoccidial activity against Eimeria tenella infected in poultry bird assessed as reduction of […] burden at 25 ppm, po after 7 days. The format is functional. The arrangement: scale not given: the % may be the effect or the level left.
The test system of assay [8] is Eimeria maxima. The assay is described as follows: Anticoccidial activity against Eimeria maxima infected in poultry bird assessed as reduction of […] burden at 25 ppm, po after 7 days. The format is functional. The arrangement: scale not given: the % may be the effect or the level left.
For assay [9], the system named is Eimeria mitis. The assay is described as follows: Anticoccidial activity against Eimeria mitis infected in poultry bird assessed as reduction of […] burden at 25 ppm, po after 7 days. It is filed as functional. Also noted: scale not given: the % may be the effect or the level left.
Assay [10] deals with Eimeria tenella. The assay is described as follows: Anticoccidial activity against Eimeria tenella infected in poultry bird assessed as reduction of […] burden at 12.5 ppm, po after 7 days. It is filed as functional. Also noted: scale not given: the % may be the effect or the level left.
For assay [11], the system named is Eimeria acervulina. The assay is described as follows: Anticoccidial activity against Eimeria acervulina infected in poultry bird assessed as reduction of […] burden at 12.5 ppm, po after 7 days. It is filed as functional. The arrangement: scale not given: the % may be the effect or the level left.
Assay [12] relates to Eimeria maxima. Briefly: Anticoccidial activity against Eimeria maxima infected in poultry bird assessed as reduction of […] burden at 12.5 ppm, po after 7 days. The format is functional. The arrangement: scale not given: the % may be the effect or the level left.
Assay [13] has as its system Eimeria mitis. The assay is described as follows: Anticoccidial activity against Eimeria mitis infected in poultry bird assessed as reduction of […] burden at 12.5 ppm, po after 7 days. It is filed as functional. The arrangement: scale not given: the % may be the effect or the level left.
Assay [14] relates to Eimeria tenella. Briefly: Anticoccidial activity against Eimeria tenella infected in poultry bird assessed as reduction of […] burden at 6.25 ppm, po after 7 days. The arrangement: scale not given: the % may be the effect or the level left. The format is functional.
Assay [15] relates to Eimeria acervulina. Briefly: Anticoccidial activity against Eimeria acervulina infected in poultry bird assessed as reduction of […] burden at 6.25 ppm, po after 7 days. It is filed as functional. Also noted: scale not given: the % may be the effect or the level left.
In assay [16] the test system is Eimeria maxima. The assay is described as follows: Anticoccidial activity against Eimeria maxima infected in poultry bird assessed as reduction of […] burden at 6.25 ppm, po after 7 days. The arrangement: scale not given: the % may be the effect or the level left. It is filed as functional.
Assay [17] concerns Eimeria mitis. Briefly: Anticoccidial activity against Eimeria mitis infected in poultry bird assessed as reduction of […] burden at 6.25 ppm, po after 7 days. The format is functional. The arrangement: scale not given: the % may be the effect or the level left.

pIC50: −log10 of the molar value.

As to `CN(C)Cc1cn2c(-c3ccncc3)c(-c3ccc(F)cc3)nc2s1`, the Activity with Eimeria tenella [1] was 80%; in the assay with Eimeria acervulina [3], 50%; in the assay with Eimeria mitis [4], less than 50%; with Eimeria maxima [5] it was less than 50%. In assay [2], this compound had a negative logarithm of the IC50 (pIC50) of 7.66.

As for `CN(C)CCc1cn2c(-c3ccncc3)c(-c3ccc(F)cc3)nc2s1`, the Activity in the assay with Eimeria tenella [1] is recorded as 50%; with Eimeria acervulina [3] it was 50%; with Eimeria mitis [4] it was 99%; in the assay on Eimeria maxima [5] it was less than 50%. The compound also had a negative-log IC50 (pIC50) in [2] of 8.00.

For `CN1CCN(C(=O)c2cn3c(-c4ccncc4)c(-c4ccc(F)cc4)nc3s2)CC1`, the pIC50 in assay [2] was 7.00.

In assay [2], `Cc1c(CN2CCN(C)CC2)sc2nc(-c3ccc(F)cc3)c(-c3ccncc3)n12` gave a negative-log IC50 (pIC50) of less than 7.00.

Consider `CN(C)Cc1cn2c(-c3ccnc(N)n3)c(-c3ccc(F)cc3)nc2s1`, for which the Activity in the assay on Eimeria tenella [1] is 99%; in the assay with Eimeria acervulina [3], 100%; in the assay with Eimeria mitis [4] it was 50%; with Eimeria maxima [5], less than 50%. The negative logarithm of the IC50 (pIC50) in assay [2] was 9.05.

In the case of `CN1CCN(CCc2cn3c(-c4ccncc4)c(-c4ccc(F)cc4)nc3s2)CC1`, the Activity in the assay on Eimeria tenella [1] is on record as 99%; with Eimeria acervulina [3], 80%; in the assay with Eimeria mitis [4], less than 50%; in the assay on Eimeria maxima [5], 50%. In assay [2], the pIC50 was 8.60.

Regarding `CN1CCN(Cc2cn3c(-c4ccncn4)c(-c4ccc(F)cc4)nc3s2)CC1`, the Activity in the assay with Eimeria tenella [1] amounted to 100%; in the assay with Eimeria acervulina [3], 99%; in the assay on Eimeria mitis [4] it was 100%; in the assay on Eimeria maxima [5], 100%. In addition, in [2], the pIC50 is 8.98.

For `CN1CCN(Cc2cn3c(-c4ccnc(N)n4)c(-c4ccc(F)cc4)nc3s2)CC1`, the Activity in the assay with Eimeria tenella [1], in the assay with Eimeria acervulina [3], in the assay on Eimeria mitis [4], in the assay with Eimeria acervulina [6], in the assay on Eimeria maxima [5] and in the assay with Eimeria tenella [7] was 100% each time. The Activity with Eimeria maxima [8] is recorded as 100%; in the assay with Eimeria mitis [9], 100%; with Eimeria tenella [10] it was 100%; with Eimeria acervulina [11] it was 100%; in the assay with Eimeria maxima [12], 100%; with Eimeria mitis [13] it was less than 50%. Moreover, the Activity in the assay with Eimeria tenella [14] is on record as 100%; in the assay with Eimeria acervulina [15] it was 100%; in the assay on Eimeria maxima [16] it was 100%; in the assay on Eimeria mitis [17] it was less than 50%. This compound showed a negative logarithm of the IC50 (pIC50) in assay [2] of 10.10.

Regarding `CN1CCN(Cc2cn3c(-c4ccncc4)c(-c4ccc(F)cc4)nc3s2)CC1`, the Activity is on record as 99% in the assay on Eimeria tenella [1], 100% with Eimeria acervulina [3], 80% in the assay on Eimeria mitis [4] and less than 50% with Eimeria maxima [5]. Also, the negative logarithm of the IC50 (pIC50) in assay [2] is 9.15.
